From BigSolDB 2.1

COC(=O)c1cccc(C(=O)OC)n1
solubility (mole fraction)
Conditions	278.15 K	283.15 K	288.15 K	293.15 K	298.15 K	303.15 K	308.15 K	313.15 K	318.15 K	323.15 K
in DMSO	–	–	–	0.0174	0.0205	0.0271	0.0323	0.0435	0.0503	0.0658
in THF	0.00553	0.00773	0.00891	0.0115	0.0138	0.0166	0.0219	0.0293	0.0373	0.046
in ethanol	0.00042	0.00068	0.00103	0.00147	0.00215	0.00323	0.00436	0.00576	0.00757	0.0101
in ethyl acetate	0.00335	0.00364	0.00549	0.0082	0.0105	0.0149	0.019	0.0261	0.0326	–
in isopentyl acetate	0.00146	0.00192	0.00252	0.00334	0.00438	0.00576	0.00729	0.00944	0.0158	0.0216
in isopropanol	0.00032	0.00049	0.00071	0.00116	0.0017	0.0022	0.0032	0.00414	0.00579	0.00785
in isopropyl acetate	0.00191	0.00235	0.00343	0.00516	0.00721	0.0094	0.0117	0.0161	0.0202	0.0262
in methanol	0.00057	0.00092	0.00142	0.00199	0.00283	0.00425	0.0055	0.0075	0.00974	0.012
in methyl acetate	0.00524	0.00759	0.0118	0.0145	0.0201	0.0255	0.0312	0.041	0.0489	0.0635
in n-butyl acetate	0.0015	0.00203	0.00286	0.00462	0.00671	0.00883	0.0113	0.0158	0.0201	0.026
in n-pentyl acetate	–	0.0027	0.0038	0.00459	0.00625	0.00851	0.0111	0.015	0.0189	0.0243
in n-propanol	0.00032	0.0005	0.00078	0.0011	0.00171	0.00228	0.00357	0.00476	0.00621	0.00839
